The data set is described as follows: Doxycycline base content and epimer contents after storage (Tableau 2). The data set is classed as physicochemical. From the text:
En outre, le tableau 2 présente une comparaison des teneurs en épimères (en p. cent) de deux préparations contenant la doxycycline (sous forme hyclate), avec le principe actif ayant servi à leur formulation. La formulation testée correspond à un produit stable.

Setting [1] is: après 1 mois de conservation à 37°C (étuve sèche), p.cent of area under chromatographic peaks.
Setting [2] is: après 3 mois de conservation à température ambiante, p.cent of area under chromatographic peaks.

This note sets out measurements from patent EP0356325A1, “Pharmaceutical composition containing a slightly water-soluble active substance and at least a glyceride gelled by at least a cellulose polymer” (Aiache, Jean-Marc, priority 1988, dated 1990).

`C[C@H]1c2cccc(O)c2C(=O)C2=C(O)[C@]3(O)C(=O)C(C(N)=O)=C(O)[C@@H](N(C)C)[C@@H]3[C@@H](O)[C@@H]21` [Doxycycline hyclate, hyclate de doxycycline]: the Doxycycline base (après 1 mois de conservation à 37°C (étuve sèche)) is 858,2 mg/g. Under setting [1], the “6 Epidoxycycline” value is listed as 0,96 p.cent, the Déméclocycline is recorded as 1,99 p.cent and the Oxytétracycline is recorded as 0,65 p.cent. The Doxycycline base (après 3 mois de conservation à température ambiante) was 899,0 mg/g. In addition, under setting [2], the “6 Epidoxycycline” value is 0,30 p.cent, the Déméclocycline was 1,81 p.cent and the Oxytétracycline base is 0,43 p.cent.
